Test results reported in patent US20100249231A1, “HSP90 Inhibitors of Protein-Protein Interaction HSP90 Chaperone Complexes and Therapeutic Uses Thereof” (THE OHIO STATE UNIVERSITY RESEARCH FOUNDATION, priority 2007, published 2010).
Peptide text beside a SMILES is read from it. * marks the point of attachment. Cbz = O=C(OCc1ccccc1)*

Tests used:
Cdk4 = experiment: Western blot of Hsp90 client protein Cdk4 in Panc-1 cells; format: cell-based, human; conditions: for level of Cdk4 protein: 10 μM proteasome inhibitor, 24 h
Procedure: (§1) The levels of Akt and Cdk4, two well-known Hsp90 clients, were measured. Celastrol decreased the protein levels of Akt and Cdk4 in a concentration- and time-dependent manner.
(§2) Western Blot. The general procedure for the Western blot analysis was briefly described as follows. After drug treatment, cells were washed twice with ice-cold phosphate-buffered saline (PBS), scraped into lysis buffer (20 mM Tris, pH 7.5, 1% Nonidet P-40, 150 mM NaCl, 5 mM EDTA, 1 mM Na3VO4) supplemented with a protease inhibitor mixture (Sigma, added at a 1:100 dilution), and incubated on ice for 20 min. The lysate was then centrifuged at 14,000×g for 10 min. Equal amounts of total protein were subjected to SDS-PAGE and transferred onto nitrocellulose membranes and probed with appropriate antibodies.

Akt = experiment: Western blot of Hsp90 client protein Akt in Panc-1 cells; format: cell-based, human; conditions: for level of Akt protein: 10 μM proteasome inhibitor, 24 h
Procedure: as §1, §2

Panc-1 cells = experiment: MTS assay; conditions: read-out: IC50 (cytotoxicity, MTS), 24 h
Procedure: MTS Assay. The human Panc-1 cells were seeded in 96-well plates at a density of 3000-5000 cells per well. […] Number of viable cells was assessed by MTS assay after 24 h. The IC50 values for cytotoxicity were calculated with WinNonlin software (Pharsight, Mountain View, Calif.).

Hsp90 = experiment: Western blot of Hsp90 protein levels; format: cell-based, human
Procedure: as §2

Panc-1 xenograft tumor = experiment: Panc-1 xenograft mouse model; format: in vivo, mice; conditions: 3 mg/kg i.p.; for inhibition of tumor growth: after the last injection
Procedure: After the last injection, celastrol inhibited 80% of tumor growth (p<0.001) (FIG. 6A).
Xenograft Mouse Model. 4 to 6-week old nu/nu athymic female mice were obtained from Charles River Laboratories (Charles River, Wilmington, Mass.). The human Panc-1 cells (5-10×10^6) were mixed with reconstituted basement membrane (Collaborative Research, Bedford, Mass.) and implanted to the right and left flanks of the mice. Tumor volumes were calculated with the formula: width^2×length/2. When tumors reached 100 mm^3, animals were randomized into different groups for treatment (n=6/group).
Then, the dosing schedule was changed to one injection per three days. Tumor sizes and body weights were measured twice a week.

[1] = test system: RIP1-Tag2 transgenic pancreatic cancer mouse model; experiment: RIP1-Tag2 transgenic pancreatic cancer mouse model; format: in vivo, mice
Description: To further evaluate the anticancer efficacy of celastrol against pancreatic cancer, the inventors utilized celastrol to inhibit tumor growth in a RIP1-Tag2 transgenic pancreatic cancer mouse model. In this mouse model, hyperplastic islets begin to appear by 3-4 weeks of age, and solid tumors emerge in pancreas at about 8-9 weeks. The cancer will metastasized into other sites such as mesenterium in the peritoneal cavity from 10-12 weeks.
RIP1-Tag2 Transgenic Mouse Model. RIP1-Tag2 transgenic mice used contained the insulin promoter-driven SV40 T-antigen and produced spontaneous multifold and multistage pancreatic islet tumors. RIP1-Tag2 positive mice were identified by PCR analysis of genomic DNA from tail biopsy. […] After 4 weeks of injection, mice of each group were sacrificed by CO2 and tumors were isolated and saved. The remaining mice were kept to calculate the survival rate.

[2] = 3 mg/kg i.p. once every 3 days for four weeks, at 12th week

SMILES | level of Cdk4 protein (Cdk4) | level of Akt protein (Akt) | IC50 (Panc-1 cells) [µM] | survival increase over control ([1]; 3 mg/kg i.p.) [days] | decrease of tumors in pancreas compared to the control group [1, 2] [%] | other results
CC(C)C[C@@H](C=O)NC(=O)[C@H](CC(C)C)NC(=O)[C@H](CC(C)C)NC(=O)OCc1ccccc1 [MG132] (Cbz-Leu-Leu-Leu-aldehyde) | did not change the levels | did not change the levels | – | – | – | –
CC1=C(O)C(=O)C=C2C1=CC=C1[C@@]2(C)CC[C@@]2(C)[C@@H]3C[C@](C)(C(=O)O)CC[C@]3(C)CC[C@]12C [celastrol, (9b,13a,14b,20a)-3-Hydroxy-9,13-dimethyl-2-oxo-24,25,26-trinoroleana-1(10),3,5,7-tertraen-29-oic acid] | – | – | 3 | 12 | 30 | effect on Hsp90 protein levels (Hsp90): no effect; inhibition of tumor growth (Panc-1 xenograft tumor): 80%; inhibition of tumor growth (Panc-1 xenograft tumor; listed as Celastrol): more than 80%; weight loss in mice (Panc-1 xenograft tumor; xenograft mice): 5%; decrease of Cdk4 protein level (Cdk4; 5 μM, 24-h treatment): 70%; median survival time ([1]; 3 mg/kg i.p.): 96 days; weight loss ([1]; 3 mg/kg i.p., RIP1-Tag2 mice): about 10%; decrease of Akt protein level (Akt; 5 μM, 24-h treatment): 80%
COC1=C2C[C@@H](C)C[C@H](OC)[C@H](O)[C@@H](C)/C=C(\C)[C@H](OC(N)=O)[C@@H](OC)/C=C\C=C(/C)C(=O)NC(=CC1=O)C2=O [geldanamycin, reference compound] | – | – | 8 | 6 | 13 | decrease of metastatic tumors in mesenterium compared to the control group [1, 2]: 50%
CC(=O)N[C@@H](CSC(=O)[C@]1([C@@H](O)C(C)C)NC(=O)[C@H](C)[C@@H]1O)C(=O)O [lactacystin] | did not change the levels | did not change the levels | – | – | – | –
